Like-named read-outs stand apart in the source and are kept apart here. Numbered stars: 1 amine (or outer) side, 2 acyl side, 3 side chain; on linkers, the order of the positions; unused ones are H or OH. Square brackets hold non-standard residues; d marks the D form. Side chains are listed from the residue outwards. Peptide text beside a SMILES is read from it. * marks the point of attachment. C18 diacid = O=C(O)CCCCCCCCCCCCCCCCC(=O)*; γGlu = O=C(O)[C@H](CCC(=O)[*:2])N[*:1]; αMeF = C[C@](N)(Cc1ccccc1)C(=O)O; αMeK = C[C@](N)(CCCCN)C(=O)O; Lauroyl = CCCCCCCCCCCC(=O)*; αMeS = C[C@](N)(CO)C(=O)O; AEEA = NCCOCCOCC(=O)O; Aib = CC(C)(N)C(=O)O
How the values were obtained:
Assay type in all cases: cell-based
[1] = target: T1, GLP-1R (INS1e assay) (Rattus norvegicus, UniProt P32301); experiment: INS1e assay, cAMP activity at GLP-1R
T1 construct: endogenous in cells; host or cells: INS-1E cells
T1 sequence (P32301 22-463): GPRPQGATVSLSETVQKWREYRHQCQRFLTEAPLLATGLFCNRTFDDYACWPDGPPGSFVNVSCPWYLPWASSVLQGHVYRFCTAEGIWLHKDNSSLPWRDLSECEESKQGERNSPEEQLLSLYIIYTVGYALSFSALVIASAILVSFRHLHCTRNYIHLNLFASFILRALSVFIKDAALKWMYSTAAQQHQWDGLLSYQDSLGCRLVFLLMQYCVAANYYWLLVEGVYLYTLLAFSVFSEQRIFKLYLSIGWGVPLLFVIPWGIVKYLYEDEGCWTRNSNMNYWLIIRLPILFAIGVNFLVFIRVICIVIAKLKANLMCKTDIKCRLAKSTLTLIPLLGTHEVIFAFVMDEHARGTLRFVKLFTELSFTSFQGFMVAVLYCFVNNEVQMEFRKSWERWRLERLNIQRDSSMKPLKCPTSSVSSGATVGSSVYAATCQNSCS
In short: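 cAMP was quantified by two-step HTRF, using anti-cAMP cryptate donor and cAMP-d2 acceptor, each diluted 1/20 in conjugate and lysis buffer. EC50 values of the synthetic peptides were derived from the cAMP readout.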

[2] = target: T2, human glucose-dependent insulinotropic peptide receptor (GIPR) (Homo sapiens, UniProt P48546); experiment: cAMP assay, human GIPR cells
T2 construct: expressed in transfected cells
T2 sequence (P48546 22-466): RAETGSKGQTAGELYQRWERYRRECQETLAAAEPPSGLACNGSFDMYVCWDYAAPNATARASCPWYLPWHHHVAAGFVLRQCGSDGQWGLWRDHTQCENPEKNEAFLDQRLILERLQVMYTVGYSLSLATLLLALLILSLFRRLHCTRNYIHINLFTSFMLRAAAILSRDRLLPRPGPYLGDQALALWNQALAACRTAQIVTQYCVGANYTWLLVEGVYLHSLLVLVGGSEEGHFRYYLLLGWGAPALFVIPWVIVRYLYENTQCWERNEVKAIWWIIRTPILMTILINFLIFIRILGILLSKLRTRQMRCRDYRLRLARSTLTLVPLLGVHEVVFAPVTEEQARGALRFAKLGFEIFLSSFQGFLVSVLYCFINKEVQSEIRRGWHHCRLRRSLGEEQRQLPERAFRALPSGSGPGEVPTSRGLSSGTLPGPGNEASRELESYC
In short: (§1)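 Peptide-stimulated cAMP measured by two-step HTRF after a 30 min room-temperature incubation with receptor-expressing cells (hGLP-1R, hGIPR at 1×10^5 cells/ml; hGCGR at 2×10^5 cells/ml). Duplicate dilutions; EC50 from 4-parameter logistic fit of % Delta F.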

[3] = target: T3, human glucagon receptor (GCGR) (Homo sapiens, UniProt P47871); experiment: cAMP assay, human GCGR cells
T3 construct: expressed in transfected cells
T3 sequence (P47871 26-477): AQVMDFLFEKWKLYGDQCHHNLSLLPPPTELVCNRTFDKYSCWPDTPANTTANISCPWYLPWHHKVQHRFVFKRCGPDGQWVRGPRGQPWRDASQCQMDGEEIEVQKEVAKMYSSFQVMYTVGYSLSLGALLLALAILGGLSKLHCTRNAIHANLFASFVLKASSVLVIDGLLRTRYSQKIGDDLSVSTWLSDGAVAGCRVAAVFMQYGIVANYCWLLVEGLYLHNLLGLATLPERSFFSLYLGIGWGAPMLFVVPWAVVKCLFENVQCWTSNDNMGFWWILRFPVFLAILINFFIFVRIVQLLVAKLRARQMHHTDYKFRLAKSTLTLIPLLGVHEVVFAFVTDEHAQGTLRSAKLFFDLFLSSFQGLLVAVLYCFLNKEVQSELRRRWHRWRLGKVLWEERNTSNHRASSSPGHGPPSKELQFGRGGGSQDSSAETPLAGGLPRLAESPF
In short: as §1

[4] = target: T4, human GLP-1 receptor (GLP-1R) (Homo sapiens, UniProt P43220); experiment: cAMP assay, human GLP-1R cells
T4 construct: expressed in transfected cells
T4 sequence (P43220 24-463): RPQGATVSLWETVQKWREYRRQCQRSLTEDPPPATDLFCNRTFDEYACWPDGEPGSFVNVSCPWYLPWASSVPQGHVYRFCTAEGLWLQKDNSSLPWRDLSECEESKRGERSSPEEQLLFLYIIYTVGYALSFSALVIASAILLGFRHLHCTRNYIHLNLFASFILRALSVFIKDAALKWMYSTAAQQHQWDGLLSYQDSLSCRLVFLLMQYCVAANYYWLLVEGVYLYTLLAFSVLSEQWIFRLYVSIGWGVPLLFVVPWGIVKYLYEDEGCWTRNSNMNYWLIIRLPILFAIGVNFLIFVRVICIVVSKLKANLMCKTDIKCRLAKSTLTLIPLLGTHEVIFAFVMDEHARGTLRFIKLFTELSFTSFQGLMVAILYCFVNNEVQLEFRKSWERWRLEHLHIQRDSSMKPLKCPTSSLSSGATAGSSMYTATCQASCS
In short: as §1

[5] = mono-lipidated peptides, mean of n1 and n2, read-out: INS1e assay EC50 Mean pM GLP-1R
[6] = mono-lipidated peptides, replicate n1, read-out: INS1e assay EC50 GLP-1R n1
[7] = mono-lipidated peptides, replicate n2, read-out: INS1e assay EC50 GLP-1R n2
[8] = cAMP assay, first determination (n1), read-out: Primary assay EC50 GIP-R (n1)
[9] = cAMP assay, second determination (n2), read-out: Primary assay EC50 GIP-R (n2)
[10] = cAMP assay, first determination (n1), read-out: Primary assay EC50 Gluc-R (n1)
[11] = cAMP assay, second determination (n2), read-out: Primary assay EC50 Gluc-R (n2)
[12] = cAMP assay, first determination (n1), read-out: Primary assay EC50 GLP-1R n1
[13] = cAMP assay, second determination (n2), read-out: Primary assay EC50 GLP-1R n2
[14] = mean of n1 and n2, read-out: Mean pM GLP-1R

Row | EC50 [1, 5] | EC50 [1, 6] | EC50 [1, 7] | EC50 [2, 8] | EC50 [2, 9] | EC50 [3, 10] | EC50 [3, 11] | EC50 [4, 12] | EC50 [4, 13] | EC50 [4, 14] | EC50 ([1]; tris-lipidated peptides, mean of n1 and n2, read-out: INS1e assay EC50 Mean pM GLP-1R) | EC50 ([1]; tris-lipidated peptides, replicate n1, read-out: INS1e assay EC50 GLP-1R n1) | EC50 ([1]; tris-lipidated peptides, replicate n2, read-out: INS1e assay EC50 GLP-1R n2) | EC50 ([2]; tris-lipidated peptides, second replicate, read-out: Primary assay EC50 GIP-R (n2)) | EC50 ([3]; tris-lipidated peptides, second replicate, read-out: Primary assay EC50 Gluc-R (n2)) | EC50 ([4]; tris-lipidated peptides, mean of n1 and n2, read-out: Primary assay EC50 Mean pM GLP-1R) | EC50 ([4]; tris-lipidated peptides, replicate n1, read-out: Primary assay EC50 GLP-1R n1) | EC50 ([4]; tris-lipidated peptides, replicate n2, read-out: Primary assay EC50 GLP-1R n2) | SMILES
1 | 42200 pM | 45600 pM | 38800 pM | ≥ 25.1 nM | ≥ 25.1 nM | ≥ 25.1 nM | ≥ 25.1 nM | 203 pM | 97.9 pM | 150 pM | – | – | – | – | – | – | – | – | CC[C@H](C)[C@H](NC(=O)[C@H](Cc1ccccc1)NC(=O)[C@H](CCC(=O)O)NC(=O)[C@H](CCC(=O)O)NC(=O)[C@H](C)NC(=O)[C@H](C)NC(=O)[C@H](CCC(=O)O)NC(=O)CNC(=O)[C@H](CCC(=O)O)NC(=O)[C@H](CC(C)C)NC(=O)[C@](C)(Cc1ccccc1)NC(=O)[C@H](CO)NC(=O)[C@](C)(CO)NC(=O)[C@@H](NC(=O)[C@H](CC(=O)O)NC(=O)[C@H](CO)NC(=O)[C@@H](NC(=O)[C@](C)(Cc1ccccc1)NC(=O)[C@H](CO)NC(=O)CNC(=O)[C@H](CCC(=O)O)NC(=O)C(C)(C)NC(=O)[C@@H](N)Cc1c[nH]cn1)[C@@H](C)O)C(C)C)C(=O)N[C@@H](CCCCNC(=O)COCCOCCNC(=O)COCCOCCNC(=O)CC[C@H](NC(=O)CCCCCCCCCCCCCCCCC(=O)O)C(=O)O)C(=O)N[C@@H](Cc1c[nH]c2ccccc12)C(=O)N[C@H](C(=O)N[C@H](C(=O)N[C@@H](CCC(=O)O)C(=O)NCC(=O)NCC(N)=O)C(C)C)C(C)C [compound 66] (H-H[Aib]EGS[αMeF]TSDV[αMeS]S[αMeF]LEGEAAEEFIK([AEEA-AEEA-γGlu-C18 diacid])WVVEGG-NH2; N-terminus assumed)
2 | 22100 pM | 19200 pM | 25000 pM | ≥ 25.5 nM | ≥ 25.5 nM | ≥ 25.5 nM | ≥ 25.5 nM | 66.1 pM | 39.9 pM | 53 pM | – | – | – | – | – | – | – | – | CC[C@H](C)[C@H](NC(=O)[C@H](Cc1ccccc1)NC(=O)[C@H](CCC(=O)O)NC(=O)[C@H](C)NC(=O)[C@H](C)NC(=O)[C@H](C)NC(=O)[C@H](CCC(=O)O)NC(=O)CNC(=O)[C@H](CCC(=O)O)NC(=O)[C@H](CC(C)C)NC(=O)[C@](C)(Cc1ccccc1)NC(=O)[C@H](CO)NC(=O)[C@](C)(CO)NC(=O)[C@@H](NC(=O)[C@H](CC(=O)O)NC(=O)[C@H](CO)NC(=O)[C@@H](NC(=O)[C@](C)(Cc1ccccc1)NC(=O)[C@H](CO)NC(=O)CNC(=O)[C@H](CCC(=O)O)NC(=O)C(C)(C)NC(=O)[C@@H](N)Cc1c[nH]cn1)[C@@H](C)O)C(C)C)C(=O)N[C@@H](CCCCNC(=O)COCCOCCNC(=O)COCCOCCNC(=O)CC[C@H](NC(=O)CCCCCCCCCCCCCCCCC(=O)O)C(=O)O)C(=O)N[C@@H](Cc1c[nH]c2ccccc12)C(=O)N[C@H](C(=O)N[C@H](C(=O)N[C@@H](CCC(=O)O)C(=O)NCC(=O)NCC(N)=O)C(C)C)C(C)C [compound 69] (H-H[Aib]EGS[αMeF]TSDV[αMeS]S[αMeF]LEGEAAAEFIK([AEEA-AEEA-γGlu-C18 diacid])WVVEGG-NH2; N-terminus assumed)
3 | 37 pM | 52.6 pM | 21.5 pM | ≥ 26 nM | ≥ 26 nM | ≥ 26 nM | ≥ 26 nM | 3.5 pM | 2.5 pM | 3 pM | – | – | – | – | – | – | – | – | CCCCCCCCCCCC(=O)NCCOCCOCC(=O)NCCOCCOCC(=O)NCCOCCOCC(=O)NCCCC[C@H](NC(=O)[C@H](C)NC(=O)[C@H](C)NC(=O)[C@H](CCC(=O)O)NC(=O)CNC(=O)[C@H](CCC(=O)O)NC(=O)[C@H](CC(C)C)NC(=O)[C@](C)(Cc1ccccc1)NC(=O)[C@H](CO)NC(=O)[C@](C)(CO)NC(=O)[C@@H](NC(=O)[C@H](CC(=O)O)NC(=O)[C@H](CO)NC(=O)[C@@H](NC(=O)[C@](C)(Cc1ccccc1)NC(=O)[C@H](CO)NC(=O)CNC(=O)[C@H](CCC(=O)O)NC(=O)C(C)(C)NC(=O)[C@@H](N)Cc1c[nH]cn1)[C@@H](C)O)C(C)C)C(=O)N[C@@H](CCC(=O)O)C(=O)N[C@@](C)(Cc1ccccc1)C(=O)N[C@H](C(=O)N[C@@H](C)C(=O)N[C@@](C)(Cc1ccccc1)C(=O)N[C@H](C(=O)N[C@H](C(=O)N[C@@](C)(CCCCN)C(=O)NCC(=O)NCC(N)=O)C(C)C)C(C)C)[C@@H](C)CC [compound 136]
4 | – | – | – | – | – | – | – | – | – | – | 6810 pM | 6380 pM | 7240 pM | 19.9 nM | 19.9 nM | 49 pM | 28 pM | 70 pM | CCCCCCCCCCCC(=O)N[C@@H](CCC(=O)NCCOCCOCC(=O)NCCOCCOCC(=O)NCCCC[C@H](NC(=O)[C@H](CO)NC(=O)[C@](C)(CO)NC(=O)[C@@H](NC(=O)[C@H](CC(=O)O)NC(=O)[C@H](CO)NC(=O)[C@@H](NC(=O)[C@](C)(Cc1ccccc1)NC(=O)[C@H](CO)NC(=O)CNC(=O)[C@H](CCC(=O)O)NC(=O)C(C)(C)NC(=O)[C@@H](N)Cc1c[nH]cn1)[C@@H](C)O)C(C)C)C(=O)N[C@@H](CC(C)C)C(=O)N[C@@H](CCC(=O)O)C(=O)NCC(=O)N[C@@H](CCC(=O)O)C(=O)N[C@@H](C)C(=O)N[C@@H](C)C(=O)N[C@@](C)(CCCCN)C(=O)N[C@@H](CCCCNC(=O)COCCOCCNC(=O)COCCOCCNC(=O)CC[C@H](NC(=O)CCCCCCCCCCC)C(=O)O)C(=O)N[C@@H](Cc1ccccc1)C(=O)N[C@H](C(=O)N[C@@H](CCCCNC(=O)COCCOCCNC(=O)COCCOCCNC(=O)CC[C@H](NC(=O)CCCCCCCCCCC)C(=O)O)C(=O)N[C@@H](Cc1ccccc1)C(=O)N[C@H](C(=O)N[C@H](C(=O)N[C@@H](CCC(=O)O)C(=O)NCC(=O)NCC(N)=O)C(C)C)C(C)C)[C@@H](C)CC)C(=O)O [compound 450] (H-H[Aib]EGS[αMeF]TSDV[αMeS]SK([AEEA-AEEA-γGlu-Lauroyl])LEGEAA[αMeK]K([AEEA-AEEA-γGlu-Lauroyl])FIK([AEEA-AEEA-γGlu-Lauroyl])FVVEGG-NH2; N-terminus assumed)
5 | 806 pM | 501 pM | 1110 pM | ≥ 25 nM | ≥ 25 nM | ≥ 25 nM | ≥ 25 nM | 18 pM | – | – | – | – | – | – | – | – | – | – | CC[C@H](C)[C@H](NC(=O)[C@](C)(Cc1ccccc1)NC(=O)[C@H](CCC(=O)O)NC(=O)[C@](C)(CCCCN)NC(=O)[C@H](C)NC(=O)[C@H](CCCCNC(=O)COCCOCCNC(=O)COCCOCCNC(=O)CC[C@H](NC(=O)CCCCCCCCCCCCCCCCC(=O)O)C(=O)O)NC(=O)[C@H](CCC(=O)O)NC(=O)CNC(=O)[C@H](CCC(=O)O)NC(=O)[C@H](CC(C)C)NC(=O)[C@](C)(Cc1ccccc1)NC(=O)[C@H](CO)NC(=O)[C@](C)(CO)NC(=O)[C@@H](NC(=O)[C@H](CC(=O)O)NC(=O)[C@H](CO)NC(=O)[C@@H](NC(=O)[C@](C)(Cc1ccccc1)NC(=O)[C@H](CO)NC(=O)CNC(=O)[C@H](CCC(=O)O)NC(=O)C(C)(C)NC(=O)[C@@H](N)Cc1c[nH]cn1)[C@@H](C)O)C(C)C)C(=O)N[C@@H](C)C(=O)N[C@@](C)(Cc1ccccc1)C(=O)N[C@H](C(=O)N[C@H](C(=O)N[C@@](C)(CCCCN)C(=O)NCC(=O)NCC(N)=O)C(C)C)C(C)C [compound 111] (H-H[Aib]EGS[αMeF]TSDV[αMeS]S[αMeF]LEGEK([AEEA-AEEA-γGlu-C18 diacid])A[αMeK]E[αMeF]IA[αMeF]VV[αMeK]GG-NH2)
